Measurements reported in ChEMBL document CHEMBL1127720, “Adamantane and Nipecotic Acid Derivatives as Novel -Turn Mimics” (Bioorg Med Chem Lett, 1994).

Key:
[1] = target: T1, Integrin alpha-IIb/beta-3 (Homo sapiens) (UniProt P05106+P08514); experiment: Inhibition of Fibrinogen Receptor at 50 uM; assay type: protein-complex assay
[2] = target: T1, Integrin alpha-IIb/beta-3 (Homo sapiens); experiment: Percent inhibition of platelet aggregation at 20 uM; assay type: functional
[3] = target: T1, Integrin alpha-IIb/beta-3 (Homo sapiens); experiment: Percent inhibition of platelet aggregation at 50 uM; assay type: functional

CC(C)(C)OC(=O)NC(CCCCN)C(=O)NC12CC3CC(CC(NCC(=O)O)(C3)C1)C2 (centres undefined)
inhibition [1]: 44%
inhibition [2]: 40%

CC(=O)N[C@@H](CCCCN)C(=O)N1CCCC(C(=O)NCCC(=O)O)C1 (some centres undefined)
inhibition [3]: 86%

CC(=O)N[C@@H](CCCCN)C(=O)N1CCCC(C(=O)NCC(=O)O)C1 (some centres undefined)
inhibition [1]: 24%
